One assay deals with T1, Adenosine receptor A1 (Rattus norvegicus, UniProt P25099).
T1 sequence (P25099 whole entry): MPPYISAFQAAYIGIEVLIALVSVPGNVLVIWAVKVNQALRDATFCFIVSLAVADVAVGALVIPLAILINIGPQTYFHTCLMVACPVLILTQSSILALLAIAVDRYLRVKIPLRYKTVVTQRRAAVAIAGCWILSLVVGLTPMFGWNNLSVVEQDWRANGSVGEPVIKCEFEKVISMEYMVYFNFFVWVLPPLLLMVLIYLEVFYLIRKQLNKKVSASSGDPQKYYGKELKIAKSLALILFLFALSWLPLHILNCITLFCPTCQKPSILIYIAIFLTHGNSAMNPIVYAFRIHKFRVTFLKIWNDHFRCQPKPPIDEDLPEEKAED

The target in a further assay is Adenosine receptor A2a (Rattus norvegicus, UniProt P30543).
Another assay has as its target T2, Adenosine receptor A3 (Rattus norvegicus, UniProt P28647).
T2 sequence (P28647 whole entry): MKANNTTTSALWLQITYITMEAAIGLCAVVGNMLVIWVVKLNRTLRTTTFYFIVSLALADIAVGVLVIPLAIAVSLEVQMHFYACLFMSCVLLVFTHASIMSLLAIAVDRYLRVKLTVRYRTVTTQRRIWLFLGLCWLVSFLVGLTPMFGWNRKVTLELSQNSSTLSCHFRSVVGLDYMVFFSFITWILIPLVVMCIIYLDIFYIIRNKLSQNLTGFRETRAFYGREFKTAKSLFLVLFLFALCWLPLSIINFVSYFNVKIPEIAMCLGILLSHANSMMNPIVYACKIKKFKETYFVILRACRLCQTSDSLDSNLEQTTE
Put plainly: biochemical.

The term Ki denotes the equilibrium dissociation constant of an inhibitor or competing ligand from its target. Read a low Ki as tighter binding.

The structures appear in SMILES notation.

Adenosine receptor A2a, sequence (P30543 whole entry): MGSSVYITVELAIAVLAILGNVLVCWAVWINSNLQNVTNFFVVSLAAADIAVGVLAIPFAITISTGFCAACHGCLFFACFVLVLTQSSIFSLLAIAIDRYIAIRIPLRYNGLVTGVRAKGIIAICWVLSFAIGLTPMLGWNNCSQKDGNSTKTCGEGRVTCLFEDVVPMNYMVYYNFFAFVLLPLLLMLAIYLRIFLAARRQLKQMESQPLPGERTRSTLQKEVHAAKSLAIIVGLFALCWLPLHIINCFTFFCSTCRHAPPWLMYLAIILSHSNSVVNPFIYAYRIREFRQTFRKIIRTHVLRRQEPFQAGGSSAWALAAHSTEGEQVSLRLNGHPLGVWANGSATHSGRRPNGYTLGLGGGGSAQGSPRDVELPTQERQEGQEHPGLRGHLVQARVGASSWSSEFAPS
Description for Adenosine receptor A1: Tested for the binding affinity of A1 receptor by displacing the [3H]-PIA in rat brain membranes
Description for Adenosine receptor A3: Tested for the binding affinity of A3 receptor by displacing N6-[[125I]-4-amino-3-iodobenzyl]-adenosine-5''-N-methyluronamide from membranes of CHO cells transfected with rat A3-cDNA

Compound `Nc1ccc(CCNc2ncnc3c2ncn3[C@@H]2O[C@H](CO)[C@@H](O)[C@H]2O)cc1` displayed a Ki at Adenosine receptor A1 of 0.014 µM.
Compound `CNC(=O)[C@H]1O[C@@H](n2cnc3c(NCc4ccc(N)c(I)c4)ncnc32)[C@H](O)[C@@H]1O` had a Ki at Adenosine receptor A2a of 0.197 µM.
On to `Nc1ccc(CCNc2ncnc3c2ncn3C2O[C@H](CO)[C@@H](O)[C@H]2O)cc1I` (stereo not given in full), for which the figures for the Ki on Adenosine receptor A1 and at Adenosine receptor A3 were 0.0021 µM and 0.0155 µM, respectively.
`OC[C@H]1O[C@@H](n2cnc3c(NC4CCCC4)ncnc32)[C@H](O)[C@@H]1O` [N6-CYCLOPENTYLADENOSINE]: the Ki at Adenosine receptor A2a was found to be 0.462 µM.

(Values after ChEMBL document CHEMBL1127377, “2-Substitution of N6-benzyladenosine-5'-uronamides enhances selectivity for A3 adenosine receptors” (J Med Chem, 1994).)
